Laboratory results as given in patent US7572783B2 (Amgen Inc., priority 2004, dated 2009).

Biological target: T1, human GHSR1a (Homo sapiens, UniProt Q92847)
T1 construct: expressed in transfected cells
Test: Aequorin luminescent functional assay (intracellular Ca2+, ghrelin-stimulated)
Details: stable cell line expressing human GHSR1a and apoaequorin; final ghrelin 3x EC50 (20 nM); read-out: Class (based on IC50 values)
Description: IC50 values of inventive compounds may be assessed as follows. An aequorin (Euroscreen) luminescent assay (Stabels et al., 1997) measuring the intracellular Ca^2+ concentration was used as the functional assay to evaluate the potency of the compounds. A stable cell line, expressing human GHSR1a and apoaequorin in mitochondria was used in the aequorin assay. 5×10^6 cells per mL were incubated at room temperature in HyClone Media (Perbio) supplemented with 2 μM coelenterazine (Molecular Probes). After 2 hrs cells were diluted to 1×10^6 cells per ml in HyClone Medium.
50 μL of the cell suspension was added to each well of a 96-well plate containing 50 μL of compound, diluted in HyClone Medium. The cell suspension/compound mixture was incubated for 30 seconds before 50 μL of a 9× EC50 concentrations of a human ghrelin solution, in HyClone Medium, was injected. The final Ghrelin concentration was 3× EC50 (20 nM). Aequorin luminescence elicited by intracellular Ca^2+ in the cells was recorded for a total of 60 seconds with a microplate luminometer (Microlumate, Berthold). IC50 of the compounds in this assay was calculated with Prism 4.

T1 sequence (Q92847 whole entry): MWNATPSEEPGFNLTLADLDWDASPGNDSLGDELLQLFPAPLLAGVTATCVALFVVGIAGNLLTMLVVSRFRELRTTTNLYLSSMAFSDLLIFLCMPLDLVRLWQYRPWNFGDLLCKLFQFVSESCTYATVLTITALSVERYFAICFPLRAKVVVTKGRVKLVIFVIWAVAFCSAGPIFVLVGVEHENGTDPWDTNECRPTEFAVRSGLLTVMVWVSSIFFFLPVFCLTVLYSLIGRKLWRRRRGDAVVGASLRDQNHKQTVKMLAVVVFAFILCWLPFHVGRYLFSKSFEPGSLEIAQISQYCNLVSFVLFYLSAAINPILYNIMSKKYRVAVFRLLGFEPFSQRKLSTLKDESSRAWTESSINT

With Cc1cccc(C)c1Oc1ccc2c(c1)C(=O)N([C@@H](C(=O)N1CCC(NC(C)c3ccccc3)CC1)C(C)C)CC(=O)N2 (stereo partly drawn) as the molecule, how does the IC50 read?
The IC50 was no more than 10 nM.

For CC(C)[C@H](C(=O)NC1CCN(Cc2ccccc2)CC1)N1CC(=O)Nc2ccc(Oc3ccc(F)cc3)cc2C1=O, which IC50 is on record?
The IC50 was 10 to 50 nM.

With Cc1ccccc1Oc1ccc2c(c1)C(=O)N([C@@H](C(=O)N1CCC(N[C@@H]3CCc4ccccc43)CC1)C(C)C)CCN2 as the molecule, how does the IC50 read?
The IC50 was no more than 10 nM.

CC(C)C(COC(=O)C1CCN(Cc2ccccc2)CC1)N1CC(=O)Nc2ccc(Oc3ccc(F)cc3)cc2C1=O (stereo not drawn) [1-benzyl-piperidine-4-carboxylic acid 2-[7-(4-fluoro-phenoxy)-2,5-dioxo-1,2,3,5-tetrahydro-benzo[e][1,4]diazepin-4-yl]-3-methyl-butyl ester] was tested. Which IC50 did it give?
Its IC50 is 10 to 50 nM.

For CC(C)C(C(=O)OC1CCN(Cc2ccccc2)CC1)N1CC(=O)Nc2ccc(Oc3ccccc3)cc2C1=O (stereo not drawn) [2-(2,5-dioxo-7-phenoxy-1,2,3,5-tetrahydrobenzo[e][1,4]diazepin-4-yl)-3-methyl-butyric acid 1-benzyl-piperidin-4-yl ester], which IC50 is on record?
The IC50 was 10 to 50 nM.

With C[C@H](CO)NCc1cccc([C@@H](C2CC2)N2CCc3ccc(Oc4ccc(F)cc4F)cc3C2=O)n1 [2-((R)-cyclopropyl(6-(((R)-1-hydroxypropan-2-ylamino)methyl)pyridin-2-yl)methyl)-7-(2,4-difluorophenoxy)-3,4-dihydroisoquinolin-1(2H)-one] as the molecule, how does the IC50 read?
The IC50 was no more than 10 nM.

How did the IC50 turn out when O=C1c2cc(Oc3ccc(F)cc3F)ccc2CCN1C(c1cccc(CCNCC2CC2)c1)C1CC1 (stereo not drawn) [2-(cyclopropyl-{3-[2-(cyclopropylmethyl-amino)-ethyl]-phenyl}-methyl)-7-(2,4-difluoro-phenoxy)-3,4-dihydro-2H-isoquinolin-1-one] was run?
The IC50 was no more than 10 nM.

Which IC50 does the source give for CC(C)C(COC1CCN(CC2CC2)CC1)N1CCc2ccc(Oc3ccc(F)cc3F)cc2C1=O (stereo not drawn) [2-[1-(1-cyclopropylmethyl-piperidin-4-yloxymethyl)-2-methyl-propyl]-7-(2,4-difluoro-phenoxy)-3,4-dihydro-2H-isoquinolin-1-one] here?
Its IC50 is no more than 10 nM.

CC(C)C(CC1CCC(NC2CC2)CC1)N1CCCc2ccc(Oc3ccc(F)cc3F)cc2C1=O (stereo not drawn) [2-[1-(4-Cyclopropylamino-cyclohexylmethyl)-2-methyl-propyl]-8-(2,4-difluoro-phenoxy)-2,3,4,5-tetrahydro-benzo[c]azepin-1-one] was tested. Which IC50 did it give?
Its IC50 is no more than 10 nM.

Which IC50 does the source give for Cc1cccc(C)c1Oc1ccc2c(c1)C(=O)N(C(C(=O)NC1CCN(C3CCc4ccccc43)CC1)C(C)C)CC(=O)N2 (stereo not drawn) [2-[7-(2,6-dimethyl-phenoxy)-2,5-dioxo-1,2,3,5-tetrahydro-benzo[e][1,4]diazepin-4-yl]-N-(1-indan-1-yl-piperidin-4-yl)-3-methyl-butyramide] here?
Its IC50 is no more than 10 nM.

CC(C)C(CCC1CCN(CC2CC2)CC1)N1CCc2ccc(Oc3ccc(F)cc3F)cc2C1=O (stereo not drawn) [2-{1-[2-(1-Cyclopropylmethyl-piperidin-4-yl)-ethyl]-2-methyl-propyl}-7-(2,4-difluoro-phenoxy)-3,4-dihydro-2H-isoquinolin-1-one] was tested. Which IC50 did it give?
The IC50 was no more than 10 nM.

Which IC50 does the source give for CC(C)C(C(=O)N1CCC(NC2CC2)CC1)N1CCc2ccc(Oc3ccc(F)cc3F)cc2C1=O (stereo not drawn) [2-{1-[4-(cyclopropyl-amino)-piperidine-1-carbonyl]-2-methyl-propyl}-7-(2,4-difluoro-phenoxy)-3,4-dihydro-2H-isoquinolin-1-one] here?
The IC50 was no more than 10 nM.

Which IC50 does the source give for CC(C)C(C(=O)N1CCC(NCC2CC2)CC1)N1CCc2ccc(Oc3ccc(F)cc3F)cc2C1=O (stereo not drawn) [2-{1-[4-(cyclopropylmethyl-amino)-piperidine-1-carbonyl]-2-methyl-propyl}-7-(2,4-difluoro-phenoxy)-3,4-dihydro-2H-isoquinolin-1-one] here?
The IC50 was no more than 10 nM.

With Cc1ccccc1Oc1ccc2c(c1)C(=O)N(C(C(=O)N1CCC(NCCc3ccc(F)cc3)CC1)C(C)C)CCN2C (stereo not drawn) [4-(1-{4-[2-(4-fluoro-phenyl)-ethylamino]-piperidine-1-carbonyl}-2-methyl-propyl)-1-methyl-7-o-tolyloxy-1,2,3,4-tetrahydrobenzo[e][1,4]diazepin-5-one] as the molecule, how does the IC50 read?
The IC50 was 10 to 50 nM.

With CCc1ccccc1Oc1ccc2c(c1)C(=O)N(C(C(=O)N1CCC(NC3CC3)CC1)C(C)C)CC(=O)N2 (stereo not drawn) [4-[1-(4-cyclopropylamino-piperidine-1-carbonyl)-2-methyl-propyl]-7-(2-ethyl-phenoxy)-3,4-dihydro-1H-benzo[e][1,4]diazepine-2,5-dione] as the molecule, how does the IC50 read?
The IC50 was 10 to 50 nM.

CC(C)C(C(=O)N1CCC(NCCc2ccc(F)cc2)CC1)N1CCc2ccc(Oc3ccc(F)cc3F)cc2C1=O (stereo not drawn) [7-(2,4-difluoro-phenoxy)-2-(1-{4-[2-(4-fluoro-phenyl)-ethylamino]-piperidine-1-carbonyl}-2-methyl-propyl)-3,4-dihydro-2H-isoquinolin-1-one] was tested. Which IC50 did it give?
The IC50 was no more than 10 nM.

CC(C)C(C(=O)N1CCC(NCc2ccc(F)cc2)CC1)N1CCc2ccc(Oc3ccc(F)cc3F)cc2C1=O (stereo not drawn) [7-(2,4-difluoro-phenoxy)-2-{1-[4-(4-fluoro-benzylamino)-piperidine-1-carbonyl]-2-methyl-propyl}-3,4-dihydro-2H-isoquinolin-1-one] was tested. Which IC50 did it give?
The IC50 was no more than 10 nM.

For CC(C)C(c1cccc(CN(C)C)c1)N1CC(=O)Nc2ccc(Oc3ccc(F)cc3F)cc2C1=O (stereo not drawn) [7-(2,4-difluoro-phenoxy)-4-[1-(3-dimethylaminomethyl-phenyl)-2-methyl-propyl]-3,4-dihydro-1H-benzo[e][1,4]diazepine-2,5-dione], which IC50 is on record?
The IC50 was no more than 10 nM.

CC(C)NCc1cccc(C(C(C)C)N2CC(=O)Nc3ccc(Oc4ccc(F)cc4F)cc3C2=O)c1 (stereo not drawn) [7-(2,4-difluoro-phenoxy)-4-{1-[3-(isopropylamino-methyl)-phenyl]-2-methyl-propyl}-3,4-dihydro-1H-benzo[e][1,4]diazepine-2,5-dione] was tested. Which IC50 did it give?
The IC50 was no more than 10 nM.

Which IC50 does the source give for Cc1cccc(C)c1Oc1ccc2c(c1)C(=O)N(C(C(=O)N1CCC(NCCc3ccc(F)cc3)CC1)C(C)C)CC(=O)N2 (stereo not drawn) [7-(2,6-dimethyl-phenoxy)-4-(1-{4-[2-(4-fluoro-phenyl)-ethylamino]-piperidine-1-carbonyl}-2-methyl-propyl)-3,4-dihydro-1H-benzo[e][1,4]diazepine-2,5-dione] here?
The IC50 was no more than 10 nM.

Cc1cccc(C)c1Oc1ccc2c(c1)C(=O)N(C(C(=O)N1CCC(NCc3ccc(F)cc3)CC1)C(C)C)CC(=O)N2 (stereo not drawn) [7-(2,6-dimethyl-phenoxy)-4-{1-[4-(4-fluoro-benzylamino)-piperidine-1-carbonyl]-2-methyl-propyl}-3,4-dihydro-1H-benzo[e][1,4]diazepine-2,5-dione] was tested. Which IC50 did it give?
The IC50 was no more than 10 nM.

With CCc1ccccc1Oc1ccc2c(c1)C(=O)N(C(C(=O)N1CCC(NCc3ccc(F)cc3)CC1)C(C)C)CC(=O)N2 (stereo not drawn) [7-(2-ethyl-phenoxy)-4-{1-[4-(4-fluoro-benzylamino)-piperidine-1-carbonyl]-2-methyl-propyl}-3,4-dihydro-1H-benzo[e][1,4]diazepine-2,5-dione] as the molecule, how does the IC50 read?
The IC50 was 10 to 50 nM.

Which IC50 does the source give for CC(C)C(C(=O)N1CCC(NCCc2ccc(F)cc2)CC1)N1CC(=O)Nc2ccc(Oc3ccccc3C(C)(C)C)cc2C1=O (stereo not drawn) [7-(2-tert-butyl-phenoxy)-4-(1-{4-[2-(4-fluoro-phenyl)-ethylamino]-piperidine-1-carbonyl}-2-methyl-propyl)-3,4-dihydro-1H-benzo[e][1,4]diazepine-2,5-dione] here?
The IC50 was 50 to 500 nM.

For CC(C)C(C(=O)N1CCC(NC2CC2)CC1)N1CC(=O)Nc2ccc(Oc3ccccc3C(C)(C)C)cc2C1=O (stereo not drawn) [7-(2-tert-butyl-phenoxy)-4-[1-(4-cyclopropylamino-piperidine-1-carbonyl)-2-methyl-propyl]-3,4-dihydro-1H-benzo[e][1,4]diazepine-2,5-dione], which IC50 is on record?
The IC50 was 10 to 50 nM.
